Laboratory results reported in PubChem BioAssay AID1845208 (Molecular Pharmacology Branch, DTP, NCI, 2023).
Values joined by “and” are separate entries in the source; they are usually repeats but may differ in a detail not shown here. Equal entries are not always repeated.

Tested on: NCI-H196 SCLC complex tumor spheroid viability
Assay: Anticancer human tumor NCI-H196 cell line growth inhibition;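 also: spheroids exposed to compounds for 7 days before readout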;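 as to viability, T/C: 100% = DMSO vehicle control wells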
Conditions: for viability, T/C: stronger effect = lower value
Source text: Multicellular complex tumor spheroid response to DNA repair inhibitors in combination with DNA-damaging drugs
This study explores the anticancer activities of DNA-damaging drugs and inhibitors of DNA damage repair, both as single agents and in combinations. Complex tumor spheroids comprised of malignant cells, endothelial cells and mesenchymal stem cells served as an in vitro model for human solid tumors. This model system incorporates physiologically relevant features and patient-derived or established malignant cell lines with clinically relevant genetic alterations from many tumor types. Twenty-six patient-derived or established malignant cell lines were evaluated representing sarcoma, melanoma, small cell lung cancer (SCLC), non-small cell lung cancer (NSCLC), as well as bladder, ovarian and pancreatic cancers. The concentration ranges selected for each drug and investigational agent were based upon clinically achievable concentrations if the clinical Cmax of the agent was known.
Compounds. The drugs and compounds olaparib (NSC753686), talazoparib (NSC767125), berzosertib (NSC777718), elimusertib (NSC800525), nedisertib (NSC802822), VX-984 (NSC792969), AZD-1390 (NSC803789), temozolomide (NSC362856), topotecan (NSC609699), trabectedin (NSC813783), staurosporine (NSC755774), and gemcitabine (NSC613327) were obtained from the National Cancer Institute (NCI) Developmental Therapeutics Program Chemical Repository. The FDA-approved anticancer drug set is available from the Developmental Therapeutics Program at https://dtp.cancer.gov/organization/dscb/obtaining/available_plates.htm. […] The stock solutions were prepared in dimethyl sulfoxide (DMSO, Sigma-Aldrich, St. Louis, MO, cat. D2650) at 400-fold the tested concentration and stored at -70 degrees C. Prior to their use, the stock solutions were diluted in fresh medium and the final DMSO concentration in the assay was 0.25% (v/v). All drugs and investigational agents were tested over a range starting from a high concentration at or near the clinical Cmax and decreasing in half-log increments. If the clinical Cmax for an agent had not been determined, the highest concentration tested was 10 microM.
Cell Lines. The patient-derived cancer cell (PDC) lines: 156681-154-R-J1-PDC, 283228-195-R-J1-PDC, 287954-098-R-J1-PDC, 292921-168-R-J2-PDC, 349418-098-R-PDC, 425362-245-T-J1-PDC, 556581-035-R-J1-PDC, and BL0293-F563-PDC were received from the NCI Patient-Derived Models Repository (PDMR, https://pdmr.cancer.gov). The established cell lines HS-SY-2 (RRID:CVCL_8719), MPNST, and SYO-1 (RRID:CVCL_7146) were obtained from the Sloan Kettering Institute. The alveolar soft parts sarcoma cell line ASPS-1 (RRID:CVCL_S738) was established at the NCI and grown from internal seed stocks. The following established cell lines were purchased from the American Type Culture Collection (ATCC, Manassas, VA): G-401 (ATCC, cat. CRL-1441, RRID:CVCL_0270), SW982 (ATCC, cat. HTB-93, RRID:CVCL_1734), VA-ES-BJ (ATCC, cat. CRL-2138, RRID:CVCL_1785), NCI-H719 (ATCC, cat. CRL-5837, RRID:CVCL_1582), NCI-H196 (ATCC, cat. CRL-5823, RRID:CVCL_1509), NCI-H841 (ATCC, cat. CRL-5845, RRID:CVCL_1595), NCI-H1618 (ATCC, cat. CRL-5879, RRID:CVCL_1480), NCI-H1876 (ATCC, cat. CRL-5902, RRID:CVCL_1503), DMS 114 (ATCC, cat. CRL-2066; RRID:CVCL_1174), NCI-H211 (ATCC, cat. CRL-5824; RRID:CVCL_1529), and SW 1271 (ATCC, cat. CRL-2177, RRID:CVCL_1716). The small cell lung cancer cell line COR-L88 was purchased from Sigma-Aldrich (cat. 92031917-1VL, RRID:CVCL_1141). The non-small cell lung cancer cell lines NCI-H226 (RRID:CVCL_1544) and NCI-H322M (RRID:CVCL_1557) were established at the NCI and grown from internal seed stocks. Pooled donor human umbilical vein endothelial cells (HUVEC, Lonza, cat. CC-2519) and human mesenchymal stem cells (hMSC, Lonza, cat. PT-2501) were purchased from Lonza (Walkersville, MD).
Cell Culture. All cells were maintained in an incubator at 37 degrees C and 5% CO2 with 95% humidity. […]

[1] = curve of first compound, second compound 1 µM
[2] = curve of first compound, second compound 3.16 µM
[3] = curve of first compound, second compound 10 µM
[4] = curve of first compound, second compound 31.6 µM
[5] = curve of first compound, second compound 100 µM

Cn1ncnc1[C@H]1c2n[nH]c(=O)c3cc(F)cc(c23)N[C@@H]1c1ccc(F)cc1 + Cn1nnc2c(C(N)=O)ncn2c1=O
IC50 [1]: > 3 µM
IC50 [2]: > 3 µM
IC50 [3]: > 3 µM
IC50 [4]: > 3 µM
IC50 [5]: > 3 µM
viability, T/C (second compound 1 µM, first compound 0.00949 µM): 103%
viability, T/C (second compound 1 µM, first compound 0.03 µM): 92%
viability, T/C (second compound 1 µM, first compound 0.0949 µM): 99.5%
viability, T/C (second compound 1 µM, first compound 0.3 µM): 95.5%
viability, T/C (second compound 1 µM, first compound 0.949 µM): 86.6%
viability, T/C (second compound 1 µM, first compound 3 µM): 94%
viability, T/C (second compound 3.16 µM, first compound 0.00949 µM): 105%
viability, T/C (second compound 3.16 µM, first compound 0.03 µM): 105%
viability, T/C (second compound 3.16 µM, first compound 0.0949 µM): 104%
viability, T/C (second compound 3.16 µM, first compound 0.3 µM): 103%
viability, T/C (second compound 3.16 µM, first compound 0.949 µM): 88.9%
viability, T/C (second compound 3.16 µM, first compound 3 µM): 99.5%
viability, T/C (second compound 10 µM, first compound 0.00949 µM): 104%
viability, T/C (second compound 10 µM, first compound 0.03 µM): 100%
viability, T/C (second compound 10 µM, first compound 0.0949 µM): 104%
viability, T/C (second compound 10 µM, first compound 0.3 µM): 90.9%
viability, T/C (second compound 10 µM, first compound 0.949 µM): 110%
viability, T/C (second compound 10 µM, first compound 3 µM): 89.2%
viability, T/C (second compound 31.6 µM, first compound 0.00949 µM): 104%
viability, T/C (second compound 31.6 µM, first compound 0.03 µM): 91.6%
viability, T/C (second compound 31.6 µM, first compound 0.0949 µM): 94.8%
viability, T/C (second compound 31.6 µM, first compound 0.3 µM): 93.2%
viability, T/C (second compound 31.6 µM, first compound 0.949 µM): 100%
viability, T/C (second compound 31.6 µM, first compound 3 µM): 91.3%
viability, T/C (second compound 100 µM, first compound 0.00949 µM): 102%
viability, T/C (second compound 100 µM, first compound 0.03 µM): 94.5%
viability, T/C (second compound 100 µM, first compound 0.0949 µM): 94.5%
viability, T/C (second compound 100 µM, first compound 0.3 µM): 94.8%
viability, T/C (second compound 100 µM, first compound 0.949 µM): 99%
viability, T/C (second compound 100 µM, first compound 3 µM): 89.5%

COc1ccc([C@@H](O)c2cc(-c3ncnc4cc(N5CCOCC5)ccc34)c(F)cc2Cl)nn1 + Cn1nnc2c(C(N)=O)ncn2c1=O
IC50 [1]: > 10 µM
IC50 [2]: > 10 µM
IC50 [3]: > 10 µM
IC50 [4]: > 10 µM
IC50 [5]: > 10 µM
viability, T/C (second compound 1 µM, first compound 0.0316 µM): 93.8%
viability, T/C (second compound 1 µM, first compound 0.1 µM): 97.1%
viability, T/C (second compound 1 µM, first compound 0.316 µM): 87.3%
viability, T/C (second compound 1 µM, first compound 1 µM): 73.5%
viability, T/C (second compound 1 µM, first compound 3.16 µM): 65.6%
viability, T/C (second compound 1 µM, first compound 10 µM): 52%
viability, T/C (second compound 3.16 µM, first compound 0.0316 µM): 98.8%
viability, T/C (second compound 3.16 µM, first compound 0.1 µM): 92.5%
viability, T/C (second compound 3.16 µM, first compound 0.316 µM): 96.7%
viability, T/C (second compound 3.16 µM, first compound 1 µM): 82.5%
viability, T/C (second compound 3.16 µM, first compound 3.16 µM): 68.9%
viability, T/C (second compound 3.16 µM, first compound 10 µM): 52.9%
viability, T/C (second compound 10 µM, first compound 0.0316 µM): 108%
viability, T/C (second compound 10 µM, first compound 0.1 µM): 97.3%
viability, T/C (second compound 10 µM, first compound 0.316 µM): 96.5%
viability, T/C (second compound 10 µM, first compound 1 µM): 80.1%
viability, T/C (second compound 10 µM, first compound 3.16 µM): 63.7%
viability, T/C (second compound 10 µM, first compound 10 µM): 55.5%
viability, T/C (second compound 31.6 µM, first compound 0.0316 µM): 109%
viability, T/C (second compound 31.6 µM, first compound 0.1 µM): 101%
viability, T/C (second compound 31.6 µM, first compound 0.316 µM): 92.5%
viability, T/C (second compound 31.6 µM, first compound 1 µM): 80.1%
viability, T/C (second compound 31.6 µM, first compound 3.16 µM): 71.4%
viability, T/C (second compound 31.6 µM, first compound 10 µM): 59.3%
viability, T/C (second compound 100 µM, first compound 0.0316 µM): 105%
viability, T/C (second compound 100 µM, first compound 0.1 µM): 99.9%
viability, T/C (second compound 100 µM, first compound 0.316 µM): 95.7%
viability, T/C (second compound 100 µM, first compound 1 µM): 91.2%
viability, T/C (second compound 100 µM, first compound 3.16 µM): 70.3%
viability, T/C (second compound 100 µM, first compound 10 µM): 57%

Cn1ncnc1[C@H]1c2n[nH]c(=O)c3cc(F)cc(c23)N[C@@H]1c1ccc(F)cc1
viability, T/C (compound 0.00949 µM): 108% and 104% and 101%
viability, T/C (compound 0.03 µM): 102% and 96.7% and 99%
viability, T/C (compound 0.0949 µM): 103% and 98.2% and 102%
viability, T/C (compound 0.3 µM): 102% and 98.1% and 100%
viability, T/C (compound 0.949 µM): 104% and 96.5% and 89.3%
viability, T/C (compound 3 µM): 108% and 92% and 87.2%
IC50 (curve of compound): > 3 µM
